Experimental findings from ChEMBL document CHEMBL5321205, “Development and therapeutic potential of adaptor-associated kinase 1 inhibitors in human multifaceted diseases” (Eur J Med Chem, 2023) are described below.

A short description of data set [1]: Oral bioavailability in mouse at 10 mg/kg measured upto 24 hrs. Format: ADME, organism-based. The settings on record: in vivo.
The nature of data set [2]: Half life in mouse at 10 mg/kg, po or 1 mg/kg, iv measured upto 24 hrs. The conditions noted are these: in vivo. The data set is classed as ADME, organism-based.
Data set [3] addresses T1, AP2-associated protein kinase 1 (Homo sapiens, UniProt Q2M2I8). Briefly: Inhibition of AAK1 expressed in human […] cells. Format: cell-based, HEK293F.
The target of data set [4] is T1, AP2-associated protein kinase 1. Nature of the data set: Binding affinity of AAK1 (unknown origin) assessed as dissociation constant.
For data set [5] the target is unchanged. Nature of the data set: Inhibition of AAK1 (unknown origin).
Data set [6] has the same target. Nature of the data set: Inhibition of GST-tagged recombinant AAK1 (unknown origin) using AP2M1 peptide as substrate by ADP-Glo kinase assay. On the technique in general: ADP-Glo first removes unused ATP, then detects ADP through luciferase.
The target is the same in data set [7]. Nature of the data set: Inhibition of GST-Xa-tagged recombinant human AAK1 using (5-FAM)-Aha-KEEQSQITSQVTGQIGWR-NH2 as substrate assessed as reduction in AP2M1 phosphorylation incubated for 3 hrs in presence of ATP by fluorescence based assay.

SMILES strings stand for the structures.

T1 sequence (Q2M2I8 whole entry): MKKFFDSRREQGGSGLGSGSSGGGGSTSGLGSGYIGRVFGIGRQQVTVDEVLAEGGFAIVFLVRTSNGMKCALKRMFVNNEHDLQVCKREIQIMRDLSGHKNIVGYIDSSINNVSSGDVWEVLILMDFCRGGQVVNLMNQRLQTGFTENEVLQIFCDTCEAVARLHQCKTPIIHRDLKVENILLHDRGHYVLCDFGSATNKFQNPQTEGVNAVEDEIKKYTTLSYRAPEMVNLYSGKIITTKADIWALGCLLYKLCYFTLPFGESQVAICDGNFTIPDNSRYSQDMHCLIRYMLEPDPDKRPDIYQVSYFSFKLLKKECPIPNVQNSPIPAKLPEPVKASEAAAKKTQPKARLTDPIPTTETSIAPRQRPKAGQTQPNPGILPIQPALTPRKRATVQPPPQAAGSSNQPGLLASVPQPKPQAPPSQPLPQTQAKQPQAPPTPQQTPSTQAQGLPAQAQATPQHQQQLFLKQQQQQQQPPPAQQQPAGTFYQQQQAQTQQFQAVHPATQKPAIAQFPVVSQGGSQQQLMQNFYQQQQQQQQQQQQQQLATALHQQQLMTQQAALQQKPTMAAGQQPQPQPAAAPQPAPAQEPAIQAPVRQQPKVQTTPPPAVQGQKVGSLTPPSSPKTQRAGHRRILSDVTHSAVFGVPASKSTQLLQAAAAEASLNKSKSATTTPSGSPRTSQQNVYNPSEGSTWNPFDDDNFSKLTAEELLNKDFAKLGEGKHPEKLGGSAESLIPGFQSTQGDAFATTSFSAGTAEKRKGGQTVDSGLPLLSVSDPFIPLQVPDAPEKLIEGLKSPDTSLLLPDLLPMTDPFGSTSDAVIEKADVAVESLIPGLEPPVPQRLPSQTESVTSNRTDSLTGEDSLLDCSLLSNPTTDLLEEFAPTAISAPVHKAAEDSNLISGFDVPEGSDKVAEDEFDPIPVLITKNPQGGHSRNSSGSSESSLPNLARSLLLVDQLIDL

What is called bioavailability is the share of a dose that reaches the circulation, judged against a reference dose that is usually intravenous. A high value points to much systemic uptake. The half-life is the time in which the quantity being followed falls by half. `COc1ncccc1-c1cnn2ccc(N3CCN(C(=O)OC(C)C)CC3)nc12`: in data set [1], the bioavailability turned out to be 100%. The same compound had a half-life in data set [2] of 3.6 h. By IC50 is commonly meant the point on the concentration scale where inhibition reaches its midpoint. With `CC(C)C[C@](C)(N)COc1ccc(-c2ccncc2)cc1C(F)(F)F`, the IC50 in data set [3] is 2.9 nM.

One may read the Kd as the equilibrium constant for the complex coming apart. As to `COc1ncccc1-c1cnc2ccc(N3CC[C@@H](N(C)C(=O)OC(C)C)C3)nn12`, the Kd in data set [4] came out at 1 nM. Further, the concentration for half-maximal inhibition (IC50) in data set [5] is below 10 nM.

Turning to `COC(=O)c1ccc2c(c1)NC(=O)C2C(Nc1ccc(N(C)C(=O)CN2CCN(C)CC2)cc1)c1ccccc1` (stereo unspecified), the dissociation constant (Kd) in data set [4] amounted to 1060 nM.

`COc1ncccc1-c1cnc2ccc(N3CC[C@@H](N(C)C(=O)OC(C)(C)C)C3)nn12`: the Kd in data set [4] was 1 nM. Further, in data set [5], the IC50 is below 10 nM. As to `COC(=O)[C@@]1(O)C[C@@H]2O[C@]1(C)n1c3ccccc3c3c4c(c5c6ccccc6n2c5c31)C(=O)NC4`, the IC50 in data set [6] is below 10 nM. Turning to `[3H]CC([3H])(C[3H])C([3H])[C@H](N)COc1ccc2c(c1)[nH]c(=O)c1cnccc12` (stereo partly specified), in data set [7], the IC50 came to 2.8 nM.

As for `COC(=O)[C@@]1(O)[C@@H](C)[C@H]2O[C@]1(C)n1c3ccccc3c3c4c(c5c6ccccc6n2c5c31)C(=O)NC4`, in data set [6], the IC50 is below 30 nM.
